Assay results reported in publication PMC10266688 (PLOS ONE, 2023).
Where two headings read alike, the source gives them in different places.

Assay: Single dose pharmacokinetics in CD1 mice (IV, IP, PO), plasma LC-MS/MS
Assay type: in vivo, mouse
Details: for Plasma concentration: individual (Group A)
Experimental: For single dose pharmacokinetic studies, plasma samples (40 μL) were mixed with 200 μL of a water-methanol mixture 1:9, v/v containing the internal standard elacridar at 400 ng/mL. After mixing by pipetting and centrifuging for 4 min at 6000 rpm, 1 μL of each supernatant was injected into LC-MS/MS system. […] Mobile phase A was acetonitrile/water (5:95, v/v) containing 1% formic acid, and mobile phase B was acetonitrile containing 0.1% formic acid. The gradient was initiated with mobile phase B at 15% and was held at 15% for 0.9 minutes with a flow rate of 0.4 mL/min, then increased to 100% and held for 0.1 minutes, and finally returned back to 15% mobile phase B and allowed to equilibrate until 2.2 minutes. […] The lower limit of quantitation (LLOQ) in plasma was 50 ng/mL.
Pharmacokinetic parameters were calculated from mean concentration-time data using non-compartmental methods in Phoenix WinNonlin version 8.3 (Certara, Princeton, NJ). Concentrations after the time 0 sample that were below the LLOQ were imputed with ½ that value. Any concentration that was determined to be an outlier by the Grubbs’s outlier test were excluded from analysis. The maximum plasma concentration (Cmax) and time to Cmax (Tmax) were the observed values. The AUClast was calculated using the log-linear trapezoidal method. AUC was extrapolated to infinity (AUCINF) by dividing the last quantifiable concentration by the terminal disposition rate constant (λz). The λz was determined from at least 3 points on the slope of the terminal phase of the concentration-time profile. The terminal half-life (T1/2) was determined by dividing 0.693 by λz. Apparent clearance (Cl/F) was calculated by dividing the dose administered by AUCINF. Apparent volume of distribution (V/F) was calculated by dividing Cl/F by λz. […] The oral and IP bioavailability was calculated as: F(%)={DoseIV×AUC(0−∞)PO/DosePO×AUC(0−∞)IV}.100%
The Method of Bailer was used to estimate the variance of AUC given the calculated variance of the mean concentration at each time point. […]. In all cases, p < 0.05 was considered statistically significant.
This was followed by a more detailed pharmacokinetic study, in which CD1 (n = 4; […]. Nine time points for IV and IP (5, 15, 30, 60, 120, 240, 360, 480 and 1440 min) and eight time points for PO (15, 30, 60,120, 240, 360, 480 and 1440 min) administration were set for this pharmacokinetic study. Each of the time point treatment group included 4 animals. Mice were injected IP with 2,2,2-tribromoethanol (150 mg/kg) prior to drawing the blood in microtainers containing K3EDTA via retro-orbital bleeding. Blood samples were centrifuged 10 min at 3000 rpm. Brain samples (right lobe) were collected and weighted. All samples were immediately processed, flash-frozen and stored at -70°C until subsequent analysis. […] Pharmacokinetic parameters were calculated from mean concentration-time data using non-compartmental methods in Phoenix WinNonlin version 8.3 (Certara, Princeton, NJ)). Using the Method of Bailer, there was no different in dose normalized AUClast by any route of administration (S17 Table).

[1] = CD-1, mouse, in vivo, ip, 20 mg/kg, Plasma concentration
[2] = CD-1, mouse, in vivo, ip, 20 mg/kg, Plasma concentration, Mean
[3] = male CD1 mice, IV 5 mg/kg, 0 min
[4] = male, CD1, mouse, in vivo, ip, 20 mg/kg
[5] = male, CD1, mouse, in vivo, iv, 5 mg/kg
[6] = male, CD1, mouse, in vivo, iv, 5 mg/kg, Plasma concentration
[7] = male, CD1, mouse, in vivo, iv, 5 mg/kg, Plasma concentration, Mean
[8] = male, CD1, mouse, in vivo, po, 50 mg/kg
[9] = male, CD-1, mouse, in vivo, po, 50 mg/kg, Plasma concentration
[10] = male, CD-1, mouse, in vivo, po, 50 mg/kg, Plasma concentration, Mean

**Q.** Which “time to clear from the bloodstream to a low steady state” value (CD1, mouse, in vivo) does the source give for N#Cc1ccc(/C=C2/C(=O)/C(=C/c3ccc(C#N)cc3)C23CCNCC3)cc1 [Up284] here?
**A.** Its value is 2 to 4 h.

**Q.** And the concentration at 15 min [1]?
**A.** The concentration at 15 min was 2480 ng/mL.

**Q.** And the concentration at 60 min [1]?
**A.** Its concentration at 60 min is 2400 ng/mL.

**Q.** And the concentration at 120 min [1]?
**A.** Its concentration at 120 min is 1950 ng/mL.

**Q.** And the concentration at 240 min [1]?
**A.** The concentration at 240 min was 1540 ng/mL.

**Q.** What about the concentration at 1440 min [1] of the same molecule?
**A.** Its concentration at 1440 min is 750 ng/mL.

**Q.** What about the concentration at 5 min [2] of the same molecule?
**A.** The concentration at 5 min was 899 ng/mL.

**Q.** What about the concentration at 15 min [2] of the same molecule?
**A.** Its concentration at 15 min is 2180 ng/mL.

**Q.** What about the concentration at 30 min [2] of the same molecule?
**A.** Its concentration at 30 min is 2460 ng/mL.

**Q.** What about the concentration at 60 min [2] of the same molecule?
**A.** Its concentration at 60 min is 2400 ng/mL.

**Q.** And the concentration at 120 min [2]?
**A.** Its concentration at 120 min is 2140 ng/mL.

**Q.** What about the concentration at 240 min [2] of the same molecule?
**A.** The concentration at 240 min was 1740 ng/mL.

**Q.** What about the concentration at 360 min [2] of the same molecule?
**A.** The concentration at 360 min was 789 ng/mL.

**Q.** What about the concentration at 480 min [2] of the same molecule?
**A.** The concentration at 480 min was 731 ng/mL.

**Q.** And the concentration at 1440 min [2]?
**A.** The concentration at 1440 min was 610 ng/mL.

**Q.** And the “Plasma concentration, Mean” value (CD-1 mice, IP 20 mg/kg, 0 min)?
**A.** Its value is “BQL”.

**Q.** And the Plasma concentration (CD-1 mice, IP 20 mg/kg, 0 min)?
**A.** The Plasma concentration was “BQL”.

**Q.** What about the “Plasma concentration, Mean” value (CD-1 mice, PO 50 mg/kg, 0 min) of the same molecule?
**A.** The value was “BQL”.

**Q.** What about the Plasma concentration (CD-1 mice, PO 50 mg/kg, 0 min) of the same molecule?
**A.** Its Plasma concentration is “BQL”.

**Q.** And the “adverse effects during PK study” value (IV 5, IP 20, PO 50 mg/kg)?
**A.** Its value is “No obvious adverse effects”.

**Q.** What about the “dose normalized AUClast by route of administration” value (Method of Bailer) of the same molecule?
**A.** The value was “no different”.

**Q.** And the “Plasma concentration, Mean” value [3]?
**A.** The value was “BQL”.

**Q.** What about the Plasma concentration [3] of the same molecule?
**A.** Its Plasma concentration is “BQL”.

**Q.** What about the Plasma concentration (male CD1 mice, IV 5 mg/kg, 1440 min, class symbol) of the same molecule?
**A.** The Plasma concentration was “BQL”.

**Q.** What about the AUC(0-inf) [4] of the same molecule?
**A.** Its AUC(0-inf) is 69500 ng·h/mL.

**Q.** What about the AUC(0-t) [4] of the same molecule?
**A.** The AUC(0-t) was 23000 ng·h/mL.

**Q.** And the Cmax [4]?
**A.** The Cmax was 2460 ng/mL.

**Q.** And the Tmax [4]?
**A.** The Tmax was 0.5 h.

**Q.** What about the bioavailability [4] of the same molecule?
**A.** The bioavailability was 78%.

**Q.** And the half-life [4]?
**A.** The half-life was 52.8 h.

**Q.** And the k el [4]?
**A.** Its k el is 3.65e-06 s⁻¹.

**Q.** What about the AUC(0-inf) [5] of the same molecule?
**A.** The AUC(0-inf) was 9770 ng·h/mL.

**Q.** And the AUC(0-t) [5]?
**A.** Its AUC(0-t) is 6580 ng·h/mL.

**Q.** And the Cmax [5]?
**A.** Its Cmax is 1510 ng/mL.

**Q.** What about the Vd [5] of the same molecule?
**A.** The Vd was 10 L/kg.

**Q.** What about the half-life [5] of the same molecule?
**A.** The half-life was 19 h.

**Q.** What about the k el [5] of the same molecule?
**A.** Its k el is 1.01e-05 s⁻¹.

**Q.** And the concentration at 5 min [6]?
**A.** Its concentration at 5 min is 1620 ng/mL.

**Q.** And the concentration at 15 min [6]?
**A.** Its concentration at 15 min is 1500 ng/mL.

**Q.** What about the concentration at 30 min [6] of the same molecule?
**A.** The concentration at 30 min was 1530 ng/mL.

**Q.** And the concentration at 60 min [6]?
**A.** Its concentration at 60 min is 793 ng/mL.

**Q.** And the concentration at 120 min [6]?
**A.** Its concentration at 120 min is 670 ng/mL.

**Q.** What about the concentration at 240 min [6] of the same molecule?
**A.** The concentration at 240 min was 504 ng/mL.

**Q.** What about the concentration at 360 min [6] of the same molecule?
**A.** Its concentration at 360 min is 256 ng/mL.

**Q.** And the concentration at 5 min [7]?
**A.** Its concentration at 5 min is 1450 ng/mL.

**Q.** And the concentration at 15 min [7]?
**A.** The concentration at 15 min was 1510 ng/mL.

**Q.** And the concentration at 30 min [7]?
**A.** The concentration at 30 min was 1260 ng/mL.

**Q.** What about the concentration at 60 min [7] of the same molecule?
**A.** The concentration at 60 min was 800 ng/mL.

**Q.** And the concentration at 120 min [7]?
**A.** The concentration at 120 min was 669 ng/mL.

**Q.** And the concentration at 240 min [7]?
**A.** The concentration at 240 min was 421 ng/mL.

**Q.** And the concentration at 360 min [7]?
**A.** Its concentration at 360 min is 238 ng/mL.

**Q.** What about the concentration at 480 min [7] of the same molecule?
**A.** The concentration at 480 min was 190 ng/mL.

**Q.** What about the concentration at 1440 min [7] of the same molecule?
**A.** The concentration at 1440 min was 116 ng/mL.

**Q.** What about the AUC(0-inf) [8] of the same molecule?
**A.** Its AUC(0-inf) is 22800 ng·h/mL.

**Q.** And the AUC(0-t) [8]?
**A.** Its AUC(0-t) is 15100 ng·h/mL.

**Q.** What about the Cmax [8] of the same molecule?
**A.** The Cmax was 1830 ng/mL.

**Q.** What about the Tmax [8] of the same molecule?
**A.** Its Tmax is 0.25 h.

**Q.** And the bioavailability [8]?
**A.** The bioavailability was 23%.

**Q.** What about the half-life [8] of the same molecule?
**A.** The half-life was 12.7 h.

**Q.** And the k el [8]?
**A.** Its k el is 1.51e-05 s⁻¹.

**Q.** What about the concentration at 30 min [9] of the same molecule?
**A.** Its concentration at 30 min is 1460 ng/mL.

**Q.** What about the concentration at 60 min [9] of the same molecule?
**A.** Its concentration at 60 min is 1560 ng/mL.

**Q.** And the concentration at 120 min [9]?
**A.** The concentration at 120 min was 1650 ng/mL.

**Q.** What about the concentration at 360 min [9] of the same molecule?
**A.** Its concentration at 360 min is 318 ng/mL.

**Q.** What about the concentration at 15 min [10] of the same molecule?
**A.** The concentration at 15 min was 1830 ng/mL.

**Q.** What about the concentration at 30 min [10] of the same molecule?
**A.** Its concentration at 30 min is 1280 ng/mL.

**Q.** And the concentration at 60 min [10]?
**A.** Its concentration at 60 min is 1430 ng/mL.

**Q.** What about the concentration at 120 min [10] of the same molecule?
**A.** Its concentration at 120 min is 1220 ng/mL.

**Q.** What about the concentration at 240 min [10] of the same molecule?
**A.** Its concentration at 240 min is 798 ng/mL.

**Q.** And the concentration at 360 min [10]?
**A.** Its concentration at 360 min is 473 ng/mL.

**Q.** What about the concentration at 480 min [10] of the same molecule?
**A.** The concentration at 480 min was 589 ng/mL.

**Q.** What about the concentration at 1440 min [10] of the same molecule?
**A.** Its concentration at 1440 min is 425 ng/mL.

**Q.** What about the concentration at 240 min (male, mouse, in vivo, CD-1 mice, PO 50 mg/kg, 240 min, individual (Groups A-D), read-out: Plasma concentration) of the same molecule?
**A.** The concentration at 240 min was 366 ng/mL.

**Q.** What about the concentration at 480 min (male, mouse, in vivo, CD-1 mice, PO 50 mg/kg, 480 min, individual (Groups A-D), read-out: Plasma concentration) of the same molecule?
**A.** Its concentration at 480 min is 376 ng/mL.

**Q.** What about the concentration at 5 min (mouse, in vivo, CD-1 mice, IP 20 mg/kg, 5 min, individual (Groups A-D), read-out: Plasma concentration) of the same molecule?
**A.** Its concentration at 5 min is 1060 ng/mL.

**Q.** What about the bioavailability (mouse, plasma, intraperitoneal, CD1 mice, IP 20 mg/kg vs IV 5 mg/kg, read-out: IP bioavailability) of the same molecule?
**A.** Its bioavailability is 87%.

**Q.** And the bioavailability (mouse, plasma, CD1 mice, PO 50 mg/kg vs IV 5 mg/kg, read-out: oral bioavailability)?
**A.** The bioavailability was 23%.
